Laboratory results taken from PubChem BioAssay AID2060905 (Molecular Pharmacology Branch, DTP, NCI, 2025).

Tested on: 282377-053-R-J1-PDC complex spheroid viability
Experiment: Anticancer human tumor 282377-053-R-J1-PDC patient-derived colon adenocarcinoma cell line growth inhibition [RAS]
Settings: for IC50: curve of first compound; for viability, T/C: stronger effect = lower value
Outline: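 Multi-cell-type spheroids: tumor cells plus HUVEC endothelial cells and mesenchymal stem cells. RAS-pathway inhibitors were combined with targeted agents, each dosed in half-log steps down from clinical Cmax, or from 10 microM when Cmax was unknown.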

[1] = second compound 0.000949 µM, first compound 0.00316 µM
[2] = second compound 0.000949 µM, first compound 0.01 µM
[3] = second compound 0.000949 µM, first compound 0.0316 µM
[4] = second compound 0.000949 µM, first compound 0.1 µM
[5] = second compound 0.000949 µM, first compound 0.316 µM
[6] = second compound 0.000949 µM, first compound 1 µM
[7] = second compound 0.003 µM, first compound 0.00316 µM
[8] = second compound 0.003 µM, first compound 0.01 µM
[9] = second compound 0.003 µM, first compound 0.0316 µM
[10] = second compound 0.003 µM, first compound 0.1 µM
[11] = second compound 0.003 µM, first compound 0.316 µM
[12] = second compound 0.003 µM, first compound 1 µM
[13] = second compound 0.00949 µM, first compound 0.00316 µM
[14] = second compound 0.00949 µM, first compound 0.01 µM
[15] = second compound 0.00949 µM, first compound 0.0316 µM
[16] = second compound 0.00949 µM, first compound 0.1 µM
[17] = second compound 0.00949 µM, first compound 0.316 µM
[18] = second compound 0.00949 µM, first compound 1 µM
[19] = second compound 0.03 µM, first compound 0.00316 µM
[20] = second compound 0.03 µM, first compound 0.01 µM
[21] = second compound 0.03 µM, first compound 0.0316 µM
[22] = second compound 0.03 µM, first compound 0.1 µM
[23] = second compound 0.03 µM, first compound 0.316 µM
[24] = second compound 0.03 µM, first compound 1 µM
[25] = second compound 0.0949 µM, first compound 0.00316 µM
[26] = second compound 0.0949 µM, first compound 0.01 µM
[27] = second compound 0.0949 µM, first compound 0.0316 µM
[28] = second compound 0.0949 µM, first compound 0.1 µM
[29] = second compound 0.0949 µM, first compound 0.316 µM
[30] = second compound 0.0949 µM, first compound 1 µM
[31] = second compound 0.3 µM, first compound 0.00316 µM
[32] = second compound 0.3 µM, first compound 0.01 µM
[33] = second compound 0.3 µM, first compound 0.0316 µM
[34] = second compound 0.3 µM, first compound 0.1 µM
[35] = second compound 0.3 µM, first compound 0.316 µM
[36] = second compound 0.3 µM, first compound 1 µM
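Note: spheroids exposed to agents for seven days before readout.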
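Throughout, for viability, T/C: luminescence viability as percent of DMSO vehicle control wells.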

In the case of `C=CC(=O)Nc1cc(Nc2nccc(-c3cn(C)c4ccccc34)n2)c(OC)cc1N(C)CCN(C)C` + CCn1c(-c2cccnc2C(C)OC)c2c3cc(ccc31)N1CCOC(CC(NC(=O)C(C(C)C)N(C)C(=O)C3(F)CCN(C(=O)C#CC(C)(C)N(C)C)CC3)C(=O)N3CCCC(N3)C(=O)OCC(C)(C)C2)C1, the IC50 (second compound 0.000949 µM) is reported as over 1000 nM, the IC50 (second compound 0.003 µM) is reported as over 1000 nM and the IC50 (second compound 0.00949 µM) is reported as over 1000 nM. It also gave an IC50 (second compound 0.03 µM) of over 1000 nM, an IC50 (second compound 0.0949 µM) of over 1000 nM and an IC50 (second compound 0.3 µM) of over 1000 nM. It also gave a viability, T/C [1] of 99%, a viability, T/C [2] of 126% and a viability, T/C [3] of 127%. It also gave a viability, T/C [4] of 92%, a viability, T/C [5] of 86% and a viability, T/C [6] of 123%. For the same compound, the viability, T/C [7] was 109%, the viability, T/C [8] was 177% and the viability, T/C [9] was 108%. The viability, T/C [10] was 81%, the viability, T/C [11] was 92.6% and the viability, T/C [12] was 88%. For the same compound, the viability, T/C [13] was 88%, the viability, T/C [14] was 188% and the viability, T/C [15] was 98%. For the same compound, the viability, T/C [16] was 84.8%, the viability, T/C [17] was 91.5% and the viability, T/C [18] was 119%. The viability, T/C [19] was 102%, the viability, T/C [20] was 140% and the viability, T/C [21] was 113%. The viability, T/C [22] was 114%, the viability, T/C [23] was 86.9% and the viability, T/C [24] was 97.4%. For the same compound, the viability, T/C [25] was 95.8%, the viability, T/C [26] was 153% and the viability, T/C [27] was 93.9%. It also gave a viability, T/C [28] of 98.5%, a viability, T/C [29] of 87.1% and a viability, T/C [30] of 124%. For the same compound, the viability, T/C [31] was 85.7%, the viability, T/C [32] was 134% and the viability, T/C [33] was 99.5%. For the same compound, the viability, T/C [34] was 102%, the viability, T/C [35] was 97.2% and the viability, T/C [36] was 121%.
In the case of `CC(C)NCC(C(=O)N1CCN(c2ncnc3c2C(C)CC3O)CC1)c1ccc(Cl)cc1` (stereo unspecified) + C=CC(=O)N1CCN(c2nc(OCC3CCCN3C)nc3c(F)c(-c4nc(N)cc(C)c4C(F)(F)F)c(Cl)cc23)C(C)C1, the IC50 (second compound 0.00316 µM) is reported as over 10000 nM, the IC50 (second compound 0.01 µM) is reported as over 10000 nM and the IC50 (second compound 0.0316 µM) is reported as over 10000 nM. The IC50 (second compound 0.1 µM) was over 10000 nM, the IC50 (second compound 0.316 µM) was over 10000 nM and the IC50 (second compound 1 µM) was over 10000 nM. For the same compound, the viability, T/C (second compound 0.00316 µM, first compound 0.0316 µM) was 104%, the viability, T/C (second compound 0.00316 µM, first compound 0.1 µM) was 108% and the viability, T/C (second compound 0.00316 µM, first compound 0.316 µM) was 96.2%. For the same compound, the viability, T/C (second compound 0.00316 µM, first compound 1 µM) was 94.1%, the viability, T/C (second compound 0.00316 µM, first compound 3.16 µM) was 88.8% and the viability, T/C (second compound 0.00316 µM, first compound 10 µM) was 84.7%. For the same compound, the viability, T/C (second compound 0.01 µM, first compound 0.0316 µM) was 99.3%, the viability, T/C (second compound 0.01 µM, first compound 0.1 µM) was 107% and the viability, T/C (second compound 0.01 µM, first compound 0.316 µM) was 83.2%. For the same compound, the viability, T/C (second compound 0.01 µM, first compound 1 µM) was 110%, the viability, T/C (second compound 0.01 µM, first compound 3.16 µM) was 89.5% and the viability, T/C (second compound 0.01 µM, first compound 10 µM) was 75.6%. The viability, T/C (second compound 0.0316 µM, first compound 0.0316 µM) was 98.2%, the viability, T/C (second compound 0.0316 µM, first compound 0.1 µM) was 99.3% and the viability, T/C (second compound 0.0316 µM, first compound 0.316 µM) was 89.3%. The viability, T/C (second compound 0.0316 µM, first compound 1 µM) was 97.3%, the viability, T/C (second compound 0.0316 µM, first compound 3.16 µM) was 91.8% and the viability, T/C (second compound 0.0316 µM, first compound 10 µM) was 85.4%. The viability, T/C (second compound 0.1 µM, first compound 0.0316 µM) was 97.9%, the viability, T/C (second compound 0.1 µM, first compound 0.1 µM) was 105% and the viability, T/C (second compound 0.1 µM, first compound 0.316 µM) was 98.7%. It also gave a viability, T/C (second compound 0.1 µM, first compound 1 µM) of 95.8%, a viability, T/C (second compound 0.1 µM, first compound 3.16 µM) of 82.7% and a viability, T/C (second compound 0.1 µM, first compound 10 µM) of 79.8%. The viability, T/C (second compound 0.316 µM, first compound 0.0316 µM) was 101%, the viability, T/C (second compound 0.316 µM, first compound 0.1 µM) was 96.7% and the viability, T/C (second compound 0.316 µM, first compound 0.316 µM) was 96.2%. For the same compound, the viability, T/C (second compound 0.316 µM, first compound 1 µM) was 98%, the viability, T/C (second compound 0.316 µM, first compound 3.16 µM) was 101% and the viability, T/C (second compound 0.316 µM, first compound 10 µM) was 84.8%. It also gave a viability, T/C (second compound 1 µM, first compound 0.0316 µM) of 100%, a viability, T/C (second compound 1 µM, first compound 0.1 µM) of 88.5% and a viability, T/C (second compound 1 µM, first compound 0.316 µM) of 118%. The viability, T/C (second compound 1 µM, first compound 1 µM) was 78.9%, the viability, T/C (second compound 1 µM, first compound 3.16 µM) was 68.7% and the viability, T/C (second compound 1 µM, first compound 10 µM) was 76%.
`Nc1ccn(C2OC(CO)C(O)C2(F)F)c(=O)n1` (stereo unspecified) + CCn1c(-c2cccnc2C(C)OC)c2c3cc(ccc31)N1CCOC(CC(NC(=O)C(C(C)C)N(C)C(=O)C3(F)CCN(C(=O)C#CC(C)(C)N(C)C)CC3)C(=O)N3CCCC(N3)C(=O)OCC(C)(C)C2)C1 gave an IC50 (second compound 0.000949 µM) of over 1000 nM, an IC50 (second compound 0.003 µM) of over 1000 nM and an IC50 (second compound 0.00949 µM) of over 1000 nM. For the same compound, the IC50 (second compound 0.03 µM) was over 1000 nM, the IC50 (second compound 0.0949 µM) was over 1000 nM and the IC50 (second compound 0.3 µM) was over 1000 nM. The viability, T/C [1] was 99.3%, the viability, T/C [2] was 105% and the viability, T/C [3] was 76%. The viability, T/C [4] was 92.6%, the viability, T/C [5] was 67.2% and the viability, T/C [6] was 57.9%. It also gave a viability, T/C [7] of 100%, a viability, T/C [8] of 97.9% and a viability, T/C [9] of 99.2%. For the same compound, the viability, T/C [10] was 109%, the viability, T/C [11] was 81.1% and the viability, T/C [12] was 59%. For the same compound, the viability, T/C [13] was 106%, the viability, T/C [14] was 97.9% and the viability, T/C [15] was 99.3%. It also gave a viability, T/C [16] of 96.8%, a viability, T/C [17] of 87.2% and a viability, T/C [18] of 66.1%. It also gave a viability, T/C [19] of 104%, a viability, T/C [20] of 87.7% and a viability, T/C [21] of 112%. It also gave a viability, T/C [22] of 104%, a viability, T/C [23] of 103% and a viability, T/C [24] of 74.1%. For the same compound, the viability, T/C [25] was 87%, the viability, T/C [26] was 98.8% and the viability, T/C [27] was 92.1%. The viability, T/C [28] was 74.3%, the viability, T/C [29] was 91.1% and the viability, T/C [30] was 68.5%. It also gave a viability, T/C [31] of 111%, a viability, T/C [32] of 99.9% and a viability, T/C [33] of 92.8%. For the same compound, the viability, T/C [34] was 116%, the viability, T/C [35] was 90.9% and the viability, T/C [36] was 52.9%.
